In patent publication US20230337677A1, “ARYL AND PYRIDYL AMIDE PESTICIDES AND COMPOSITIONS THEREOF” (University of Florida Research Foundation, Incorporated, priority 2019, published 2023):
“Also recorded” adds a separate entry of the source. Like-named read-outs stand apart in the source and are kept apart here.

Legend:
[1] = system: Aedes aegypti mosquitoes, insecticide-susceptible Orlando strain; test: whole plant or invertebrate; settings: 24 h, read-out: 24 h % Mortality, 100 μg/cm^2
[2] = system: Aedes aegypti mosquitoes, insecticide-susceptible Orlando strain; type: in vivo; settings: for 1 h % Repellency, 100 μg/cm^2: screened at 100 μg/cm^2, strain not given; for vapor repellency / mortality, statement in words (Example 8): structure-activity analysis of Table 2; for 1 h Repellency EC50, μg/cm^2: (OR); for knockdown in 1 hr repellency test (XXkd = number of insects incapacitated out of 16 females): 100 μg/cm^2; for 1h % repellency: Screened at μg/cm^2
Protocol: The tubes as shown were held horizontally on the bench.
For assessing behavioral repellency (FIG. 1), Aedes aegypti mosquitoes were used from the insecticide-susceptible Orlando strain and the pyrethroid-resistant Puerto Rico strain. Sixteen female mosquitoes were transferred to a glass tube (12.5 cm long, 2.5 cm outer diameter) with the ends covered with netting. Each compound was dissolved in 1 mL of acetone and serial dilutions ranging from 30-0.01 μg/ml were made. Circular filter papers (5 cm^2) were saturated with 50 μL of each concentration and allowed 10 min for solvent evaporation. The filter papers were then placed in clear conical polypropylene caps and fixed to the end of the glass tubes. The netting prevented mosquito contact with the filter paper. The tubes were then aligned with a mark denoting the midline and the proportion of mosquitoes on the chemically treated side was scored for up to 60 min. At the end of the test, the tube was placed in a cage and the ability of the mosquitoes to fly out of the tube was assessed for 30 min. […] This post-test evaluated whether any non-responding mosquitoes (not repelled) resulted from intoxication or disorientation from the test chemical. For assessment of lethality, insects were held for 24 hr under constant exposure in glass tubes having treated filter papers.
Compounds were first screened at 100 μg/cm^2 for repellency and 24 h mortality.

[3] = system: Aedes aegypti mosquitoes, insecticide-susceptible Orlando strain; settings: for 24h % mortality: Screened at μg/cm^2
[4] = system: Anopheles gambiae G3 sensitive strain; test: Topical toxicity (24 hour mortality), An. gambiae G3; type: in vivo; settings: topical application, 24 h mortality, female adults, susceptible strain G3
Protocol: (§1) The Aedes aegypti strains Orlando (sensitive) as well as the Puerto Rico (PR, resistant to permethrin) were used. The Anopheles gambiae (G3 sensitive strain, as well as Akron kdr (Akdr) strain, resistant to pyrethroids were also assessed. The larvae were provided by the USDA, Gainesville Fl, and raised in a pan with tap water maintained at 28° C. Larvae were fed a ground liver and yeast mixture, and pupae were placed in emergence cages. Adults were held at 28° C. and provided with cotton balls soaked in 10% sugar water for rearing and for all bioassays.
(§2) Female adults from 3 to 6 days were used for the experiments. The drug was dissolved in ethanol and then applied with a micro-applicator on the thorax, between the legs: 200 nL of drug per female mosquito, with different concentrations of the drug; 10 mosquitos were treated together per concentration per replicate, and put together in a small container with free access to sweet water. Mortality, i.e. no visible movement, was assessed 24 hours after treatment. Every compound was assessed on at least 3 different cohorts of mosquitoes, and the LD50 values and slopes were determined with Probit analysis, corrected with Abbott's formula.

[5] = system: Aedes aegypti strain Orlando (sensitive); test: Topical toxicity (24 hour mortality), Ae. aegypti Orlando; type: in vivo; settings: topical application, 24 h mortality, female adults, susceptible Orlando strain
Protocol: as §1, §2

[6] = screened at 100 μg/cm^2, 24 h, strain not given

Compound | mortality at 100 µg/cm2 [1] | 1 h % Repellency, 100 μg/cm^2 [2] | 24 h % Mortality, 100 μg/cm^2 [3, 6] | further results
O=C(CCSC(F)(F)F)Nc1ccc(F)cc1 [GMR198] | 0% | 8% |  | 
O=C(Nc1ccc(F)cc1)C(F)(F)Sc1ccc(F)cc1 [GMR196] | 0% | 18% |  | 
C=CC(=O)Nc1ccccc1NC(=O)C=C [GMR024] | 3% | 0% |  | vapor repellency / mortality, statement in words (Example 8) [2]: reduced repellency and poor toxicity
CCCCC(=O)Nc1ccccc1OC(F)(F)F [MTFI-5-8B] | 13% | 96% |  | 1 h Repellency EC50, μg/cm^2 [2]: 11 μg/cm^2
CCCCC(=O)Nc1ccccc1CCCC [MTFI-5-8A] | 6% | 38% |  | 
COCc1c(F)c(F)c(COC(=O)[C@@H]2[C@@H](C=C(Cl)Cl)C2(C)C)c(F)c1F [GMR146] |  |  |  | 24 h % Mortality, 100 μg/cm^2 ([3]; in vivo): 100%; 24 h LC50, μg/cm^2 ([3]; in vivo): 1 μg/cm^2; knockdown in 1 hr repellency test (XXkd = number of insects incapacitated out of 16 females) [2]: 15
CC(C)(C)c1cccc(NC(=O)CCl)c1 [MTFI-5-7A] |  | 6% | 0% | 
O=C(Nc1cc(F)c(F)c(F)c1F)C(F)(F)C(F)(F)C(F)(F)F [MTFI-5-4E] | 6% | 56% |  | 
O=C(CCC1CCCCC1)Nc1cc(C(F)(F)F)cc(C(F)(F)F)c1 [MTFI-3-1D] |  | 6% | 7% | 
C=CCCC(=O)Nc1ccccc1C(F)(F)F [MTFI-5-5D] | 6% | 56% |  | 
CN(C(=O)C(F)(F)C(F)(F)C(F)(F)F)c1cc(F)c(F)c(F)c1 [GMR113] | 6% | 0% |  | 
CCC(=O)Nc1c(Cl)cncc1Cl [GMR131] |  | −4% | 6% | 
O=C(Nc1cc(F)cc(F)c1)C(F)(F)C(F)(F)F [GMR188] |  |  | 81% | 24 h LC50, μg/cm^2 ([3]; 24 h, LC50 (OR)): 4.9 μg/cm^2
CCCCCCCCCC(=O)Nc1ccccc1OC(F)(F)F [GMR184] |  | −8% | 2% | 
O=C(Nc1cccc(C(F)(F)F)c1)c1c(F)c(F)c(F)c(F)c1F [MT2018-0316-01] | 0% | 24% |  | vapor repellency / mortality, statement in words (Example 8) [2]: poor results
CCC(=O)Nc1cc(F)c(F)c(F)c1 [GMR143] |  | 88% | 53% | 24 h LC50, μg/cm^2 ([3]; 24 h, LC50 (OR)): 95 μg/cm^2; 1 h Repellency EC50, μg/cm^2 [2]: 23 μg/cm^2
CCC(=O)Nc1cccc(OC(F)(F)F)c1 [GMR160] | 16% | 42% |  | 1 h Repellency EC50, μg/cm^2 [2]: 123 μg/cm^2
CCCC(=O)Nc1c(Cl)cncc1Cl [GMR132] | 28% | 4% |  | 
O=C(Cc1c(F)c(F)c(F)c(F)c1F)n1nnc2ccccc21 [MT2018-0314-02] | 0% | 6% |  | 
CC(SC(F)(F)F)C(=O)Nc1ccc(F)cc1 (stereo not drawn) [GMR197] | 0% | 30% |  | 
O=C(CBr)Nc1ccccc1C(F)(F)F [MTFI-5-5E] | 60% | 62% |  | 
O=C(Nc1cc(F)c(F)c(F)c1F)C(F)F [MTFI-5-4A] | 0% | 68% |  | 
O=C(Nc1ccc(F)cc1)C(F)(F)C(F)(F)F [GMR189] |  | 42% | 94% | 24 h LC50, μg/cm^2 ([3]; 24 h, LC50 (OR)): 35.3 μg/cm^2; 1 h Repellency EC50, μg/cm^2 [2]: 4.5 μg/cm^2
CN(C(=O)C(F)(F)C(F)(F)OC(F)(F)F)c1cc(F)c(F)c(F)c1 [GMR114] | 6% | 0% |  | 
O=C(Nc1cc(F)c(F)c(F)c1)C(F)(F)C(F)(F)OC(F)(F)F [compound 51] |  |  |  | 24 h LC50, μg/cm^2 ([3]; Table 3A): 14.94 μg/cm^2; 24h % mortality ([3]; Table 3A): 100%; 1h EC50 (μg/cm^2) ([2]; Table 3A): 3.09 μg/cm^2; 1h % repellency ([2]; Table 3A): 100%

Compound | mortality at 100 µg/cm2 [1] | 1 h % Repellency, 100 μg/cm^2 [2] | 24 h % Mortality, 100 μg/cm^2 [3, 6] | further results
O=C(Nc1cc(F)c(F)c(F)c1F)C(F)(F)F [MTFI-5-4B] |  | 82% | 0% | 
Cc1ccccc1C(=O)Nc1cc(C(F)(F)F)cc(C(F)(F)F)c1 [MTFI-3-1E] | 7% | 6% |  | vapor repellency / mortality, statement in words (Example 8) [2]: poor results
O=C(Nc1cc(C(F)(F)F)cc(C(F)(F)F)c1)C(F)(F)F [MTFI-3-1G] |  |  |  | 24 h % Mortality, 100 μg/cm^2 ([3]; in vivo): 100%; 24 h LC50, μg/cm^2 ([3]; in vivo): 16 μg/cm^2; knockdown in 1 hr repellency test (XXkd = number of insects incapacitated out of 16 females) [2]: 3
O=C(Cc1c(F)c(F)c(F)c(F)c1F)Nc1cccc(C(F)(F)F)c1 [MT2018-0316-02] | 0% | 6% |  | 
C=CCCCC(=O)Nc1cc(C(F)(F)F)cc(C(F)(F)F)c1 [MTFI-3-1C] |  | 38% | 0% | 
CC1(C)[C@H](C=C(Cl)Cl)[C@H]1C(=O)Nc1cc(F)c(F)c(F)c1 [GMR148] | 6% | 12% |  | 
O=C(c1c(F)c(F)c(F)c(F)c1F)n1nnc2ccccc21 [MT2018-0314-01] | 0% | 32% |  | 
CC(=O)Nc1cc(F)c(F)c(F)c1 [GMR142] | 66% | 50% |  | 
O=S(=O)(Nc1c(Cl)cc(C(F)(F)F)cc1Cl)C(F)(F)F [MTFI-5-10A] | 0% | 0% |  | 
O=C(CCC1CCCCC1)Nc1ccccc1C(F)(F)F [MTFI-3-2F] |  | 18% | 25% | 
O=C(CC1CC1)Nc1ccccc1C(F)(F)F [MTFI-5-5C] |  | 82% | 0% | 1 h Repellency EC50, μg/cm^2 [2]: 34 μg/cm^2
O/N=C(\Nc1cc(Cl)nc(C(F)(F)F)c1)C(F)(F)C(F)(F)C(F)(F)F [GMR105] |  | 24% | 21% | 
O=C(CC1CC1)Nc1cccc(C(F)(F)F)c1 [MTFI-5-6C] | 0% | 50% |  | 
CN(C(=O)C(F)(F)C(F)(F)OC(F)(F)F)c1cc(Cl)nc(Cl)c1 [GMR106] |  |  |  | 24 h % Mortality, 100 μg/cm^2 ([3]; in vivo): 100%; An. gambiae G3 LD50 [4]: >1000 ng/mg; knockdown in 1 hr repellency test (XXkd = number of insects incapacitated out of 16 females) [2]: 2; Ae. aegypti OR LD50 [5]: 846 ng/mg
O=C(Nc1ccccc1C(F)(F)F)C(F)(F)C(F)(F)F [MTFI-2-1B] | 0% | 38% |  | 
C=CC(=O)Nc1ccccc1N [GMR022] |  | −8% | 16% | 
CCOC(=O)Nc1ccccc1C(F)(F)F [GMR020] |  | 16% | 9% | 
CC(=O)Nc1ccccc1C(F)(F)F [MTFI-3-2A] | 22% | 80% |  | 
CC(C)(F)C(=O)Nc1ccccc1C(F)(F)F [MTFI-5-5A] |  | 82% | 3% | vapor repellency / mortality, statement in words (Example 8) [2]: reduced repellency; also recorded: little to no activity
CC(C)(C)c1cccc(NC(=O)CCl)c1 [compound 1] |  |  |  | 24h % mortality ([3]; Table 3B): 0%; 1h % repellency ([2]; Table 3B): 6%
CC(C)CC(=O)Nc1cc(F)c(F)c(F)c1 [GMR141] |  | 16% | 19% | 
O=C(Nc1cc(F)c(F)c(F)c1)C(F)(F)C(F)(F)F [GMR135] |  | 74% | 100% | 24 h LC50, μg/cm^2 ([3]; 24 h, LC50 (OR)): 21.6 μg/cm^2; 1 h Repellency EC50, μg/cm^2 [2]: 22.1 μg/cm^2; Ae. aegypti OR LD50 [5]: 1792 ng/mg
O=C(CCl)Nc1cccc(C(F)(F)F)c1 [MTFI-2-2A] |  | 50% | 3% | 
CCCC(=O)Nc1cc(F)c(F)c(F)c1 [GMR144] |  | 62% | 38% | 
CCCCC(=O)Nc1cccc(OC(F)(F)F)c1 [MTFI-5-9A] |  | 50% | 0% | 
